# Values quoted from earlier work, collected in patent US10526439B2, “High dielectric breakdown strength resins” (priority 2017, dated 2020).
# Settings: monomer property, Table IA; species and route not given
row,SMILES,Toxicity LD50 [mg/kg]
1,"C=Cc1ccc(C(C)(C)C)cc1 [Monomer 1, 4-tert butyl styrene]",>2000
2,"C=Cc1ccccc1 [STYRENE, styrene]",>2000
